# Measurements as given in patent publication US6867186B2, “Cell-permeable protein inhibitors of calpain” (New England Medical Center Hospital, priority 1997, dated 2005).
# Where two headings read alike, the source gives them in different places.
# How the values were obtained:
# [1] = test system: platelets; experiment: cells; parameters: increase in P-selectin surface expression over unstimulated: dose or concentration left out as unconfirmed
# Procedure: To determine whether S-TIPPEYIN could inhibit α-granule secretion in platelets, surface expression of P-selectin, which indicates α-granule secretion, was induced with the thrombin peptide SFLLR (SEQ ID NO:5) and analyzed by flow cytometry using an antibody against P-selectin. Blood from healthy volunteers was collected into sodium citrate (4% w/v) and centrifuged at 200×g for 10 minutes to prepare platelet-rich plasma (PRP), from which platelets were subsequently purified by gel filtration using a SEPHAROSE 2B column in PIPES buffer. Twenty μl of platelets (approximately 2×10^8 platelets/ml) were aliquoted into eppendorf tubes and one μl of S-TIPPEYIN, TIPPEYIN (lacking the signal peptide sequence), or S-TIPPEY-ala was added to achieve final concentrations of 6.25, 12.5, 25, 50, or 100 μM. The platelets were then incubated for 2 hours at 37° C. and subsequently exposed to either 1 μl PBS (unstimulated) or 1 μl of SFLLR (SEQ ID NO:5; stimulated) at the indicated concentration. After 30 seconds, a 7.5 μl aliquot was transferred to an eppendorf tube containing non-immune serum having antibodies that were conjugated to phycoerythrin. Following a 20 minute incubation at room temperature, the mixture was diluted with 1 ml of 2% paraformaldehyde and incubated at 4° C. for two hours. Antibody binding to platelet surface P-selectin was quantified using a FACSCAN flow cytometer (Becton Dickerson, San Jose, Calif.). Results were reported as the geometric mean of the relative fluorescence.
# Platelets were pre-incubated with increasing concentrations of calpeptin, MDL, E64d, or DMSO (vehicle control) for ten minutes prior to stimulation with SFLLR.
# [2] = test system: HIV-1
# Procedure: U1 is a human promonocytic cell line that is chronically infected with HIV-1 and that constitutively expresses low levels of HIV-1. […] In the present experiment, 1×10^6 cells/ml were treated with various dosages of calpastat and incubated for one hour at 37° C. After incubation, various concentrations of Tpg were added to the calpastat-treated cells and aliquoted into a 24-well plate. To observe the stimulation of HIV-1 activity by Tpg, equivalent numbers of cells were treated with Tpg alone. The cells were then incubated at 37° C. for up to four days, and supernatants from the cell culture were collected each day to measure HIV-1 activity. The viability of cells treated with both Tpg and calpastat were determined each day by Trypan-blue exclusion test. The HIV-1 activity in the collected supernatants was determined by measuring the HIV-1 p24 core antigen protein by ELISA (Dupont Medical Products, Boston, Mass.) according to the manufacturer's instructions.
# In another series of experiments, U1 cells, which are latently infected with HIV-1 provirus, were plated at 10^6 cells/well in 1 ml of medium and treated with varying concentrations of either calpastat (FIG. 7E) or calpeptin (benzyloxycarbonyl-leucyl-norleucinal) (FIG. 7F) for 45 minutes before addition of thapsigargin (4 nM final concentration). […] After 48 hours of stimulation, HIV-1 p24 antigen levels were determined in 200 μl of tissue culture supernatant, using a p24 ELISA (DuPont). All assays were performed on triplicate cultures.
# [3] = test system: platelet rich plasma (PRP); experiment: Platelet disk-to-sphere shape change after cold storage (ESC assay); assay type: cell-based; parameters: cold storage of PRP, extent of shape change (ESC): dose or concentration left out as unconfirmed
# Procedure: Disk-to-sphere shape change was then assayed using the extent of shape change (ESC) assay (Holme et al., Transfusion 38:31-40, 1998). Briefly, samples of stored PRP were treated to induce disk-to-sphere shape change by cold storage and the addition of EDTA (to prevent aggregation). ADP was then added as a stimulus to measure ESC, and shape change was measured by determining light transmission through the sample. If the initial storage conditions caused considerable disk-to-sphere shape change, there would be little additional shape change upon addition of EDTA and ADP. Conversely, if the initial storage conditions caused little disk-to-sphere shape change, there would be considerable additional shape change upon addition of EDTA and ADP. The results of three experiments in which 24 hour storage of platelets at 4° C. was tested, in the presence and absence of calpastat, are shown in FIG. 12. The bracket labelled “fresh CDP” indicates the ESC that can be expected for fresh PRP in CPD, and the bracket marked “cold EDTA-treated PRP” indicates the ESC that can be expected for PRP subjected to cold storage in EDTA.
# The day O control is an assay performed on fresh PRP with no cold storage in standard buffer.
# [4] = test system: calpain; experiment: Ionophore-dependent calpain degradation of ABP and talin in platelets; assay type: cell-based; settings: 5, 8, or 10 minutes A23187
# Procedure: To investigate whether calpastat inhibits calpain activity in platelets, the ionophore-dependent proteolysis of actin binding protein (ABP; about 280 kDa) and talin (about 240 kDa), both of which are substrates of both μ- and m-calpains, was examined as follows.
# Platelets were pre-incubated with ZLLYCHN2, DMSO (solvent for ZLLY-CHN2), calpastat, or HEPES buffer (buffer for calpastat), and then treated with or without ionophore A23187 for 5, 8, or 10 minutes. The platelets were then gel-purified as described above. Whole cell lysates were prepared and fractionated by SDS polyacrylamide gel electrophoresis.
# [5] = test system: red blood cells isolated from sickle cell patients; experiment: Na2S2O5-induced sickling of sickle erythrocytes; assay type: cell-based, human
# Procedure: To examine sickling, a wet preparation of red blood cells (as opposed to a dried smear) was made by placing blood under a coverslip on a glass slide. The slide was placed under a light microscope, and the number of cells displaying sickled morphology was counted. Na2S2O5 was used to increase the rate of sickling.
# When EDTA-anticoagulated peripheral blood from a sickle cell patient was preincubated with calpastat for 10 minutes prior to exposure to sodium metabisulfite (Na2S2O5), there was a significant delay (about 30 minutes) in sickling.
# In a second experiment, the effect of calpastat on recovery from sickling was measured. Blood from the same patient was incubated with Na2S2O5, for two hours in a microfuge tube. The supernatant plasma was then removed from the settled erythrocytes and the erythrocytes were diluted in four volumes of saline. The washed erythrocytes were then incubated in saline, and Wright-Giemsa stained smears were made 60 minutes following the washout of Na2S2O5.
# [6] = sixty minutes following Na2S2O5 washout
Substance,"effect on SFLLR-induced P-selectin surface expression ([1]; pre-incubation, SFLLR stimulation)","decrease of mean fold viral production ([2]; 5 μM, 24 hours of Tpg stimulation)","decrease of mean fold viral production ([2]; 5 μM, 46 hours of Tpg stimulation)","decrease of mean fold viral production ([2]; 5 μM, 72 hours of Tpg stimulation)","decrease of mean fold viral production ([2]; 5 μM, 96 hours of Tpg stimulation)","inhibition of HIV-1 release from infected cells ([2]; 5 μM, overall)","IC50 ([2]; read-out: IC50, inhibition of HIV-1 replication, FIG. 7E, U1 cells, thapsigargin 4 nM, 48 hours)","cold storage of PRP, extent of shape change (ESC) ([3]; about 24 hours at 4° C., compared to EDTA)",protection against disk-to-sphere shape change ([3]; five days at 4° C.),A23187-dependent calpain degradation of ABP and talin in platelets [4],IC50 [1],P-selectin surface expression induced by ionophore A23187 ([1]; A23187),"maximal inhibition of P-selectin surface expression ([1]; FIG. 3, SFLLR)",increase in P-selectin surface expression over unstimulated ([1]; SFLLR alone approximately 10-fold),"IC50 ([1]; read-out: half-maximal inhibition of P-selectin surface expression, FIG. 3, SFLLR)",final percentage of sickled cells ([5]; Na2S2O5),delay in sickling ([5]; preincubated 10 minutes prior to Na2S2O5),"percentage of discocytes compared to S-TIPPEY-ala-treated cells [5, 6]","percentage of sickled cells compared to S-TIPPEY-ala-treated cells [5, 6]"
AAVALLPAVLLALLAPEKLAERADAAAPEAAELLEKKTGV [Calpastat-ala],no effect,,,,,,,,,,,,,,,,,,
H-AAVALLPAVLLALLAPEKLGERDDTIPPEYRELLEKKTGV-OH [Calpastat],,47%,44%,55%,61%,about 50%,0.05 µM,significantly improved cold storage,considerable protection,inhibited,30 µM,inhibited,40 to 60 µM,5 fold,15 to 20 µM,no detectable difference,about 30 minutes,two-fold greater,two-fold lower
